From a melting point compilation (Tetko et al.; mined from patent text by program, amines drawn as free bases though some values may be those of a salt)

melting point [°C]	Structure (SMILES)
206 to 207	CCOCOc1c(-c2ccc(C(=O)Nc3ccc(OC(C)=O)cc3)cc2)ccc2cc(OC)c(C34CC5CC(CC(C5)C3)C4)cc12
> 260	O=C1CCC2=C1C(c1ccc(F)c(Br)c1)C1=C(CCS1)N2 (stereo unspecified)
67 to 69	CCOC(=S)c1ccc2scc(C)c2c1
156 to 159	CNc1ccc(C(=O)OC)c(F)n1
250 to 251	Cc1nnc(-c2ccc3occ(-c4ccc(CS(C)(=O)=O)cc4)c3c2)o1
137 to 139	CC(=NOCCOc1ccc(CC2SC(=O)NC2=O)cc1)c1ccc(-c2ccc3c(c2)OCO3)cc1 (stereo unspecified)
149 to 150	C=CCC1(CC=C)c2cc(Br)ccc2-c2ccc(Br)cc21
195 to 198	O=C(O)c1cc([N+](=O)[O-])cn1C1CCCC1
102	CN(Cc1ccncc1)Cc1ccc(CCC(=O)Nc2ccc(-c3ccc(Cl)cc3)cc2)cc1
138 to 140	CC(C)(C)OC(=O)N1CCc2c(n(CCOc3ccccc3)c3c(Cl)c(Cl)ccc23)CC1
44 to 45	CCCCCCCCCCCCCCOc1ccc(C(=O)OC)cc1C(C)(C)C
154	CN(C)NC(=O)c1nc([N+](=O)[O-])cn1C
94 to 95	Clc1ccc(N(Cc2ccccc2)c2ccccc2)cc1
108 to 110	COC(=O)c1nc(N)sc1CCC(C)C
134 to 135	O=c1c(-c2ccc[nH]2)coc2ccccc12
143 to 144	Cc1cc(C(c2cc(C)sc2C)c2cc(C)sc2C)c(C)s1
105 to 107	O=c1[nH]c2ccc(CCCN3CCC(Cc4ccc(F)cc4)CC3)cc2o1
345 to 347	CC1(C)CCn2c(nc(-c3ccncc3)cc2=O)N1
215 to 217	COc1cc2c(cc1OC)[C@@H]1CN(C)CC[C@@H]1N=C2c1cccc(C(F)(F)F)c1 (relative stereo)
220 to 222	O=Cc1ccc2c(c1)NC(=O)CO2
121 to 123	O=C(O)CCC/C=C\[C@@H]1C[C@@H](NS(=O)(=O)c2ccccc2)CN1S(=O)(=O)c1ccc(Cl)cc1
161 to 162	Cc1ccc(-n2nc(C(F)F)cc2-c2ccc(S(C)(=O)=O)cc2)cc1F
109 to 110	CCN(CC)CCNC(=O)c1cc(Cl)c(N)cc1OCC(=O)C(C)C
172 to 174	O=c1c(Br)c(OCc2ccc(F)c(F)c2)ccn1Cc1cccc(F)c1
82 to 85	Fc1ccc(NC(=S)c2ccccn2)cc1

melting point [°C]	Structure (SMILES)
49 to 50	CC1(C)CC(N2CCCC2)c2sccc2O1 (stereo unspecified)
135 to 136	Cc1ccc(N2CCOCC2)c(N=C2NCCN2CCO)c1
247 to 249	CC1CC(N)=NN1c1nc2c(s1)CCCC2 (stereo unspecified)
134 to 138	CC(C)C(C)(C#N)N1C(=O)c2ccc3ccn(C)c3c2C1=O (stereo unspecified)
111 to 113	COC(=O)COc1cc2c(c(Cl)c1Cl)C(=O)C(CCOC(C)=O)C2 (stereo unspecified)
72.5 to 73.5	COC(=O)C(CCn1c(Cl)ccc1C(=O)c1ccc(Cl)cc1)C(=O)OC
> 300	O=c1c2cc(F)c(F)cc2[nH]c2c1cnn2-c1ccccn1
78 to 80	c1ccc(-c2cc3ccccc3n2-c2ccccc2)cc1
99 to 101	COC(=O)c1ccc(OCC(C)NCC(O)c2cccc(Cl)c2)cc1 (stereo unspecified)
136 to 137	Cc1oc(-c2ccccc2)nc1COc1ccc(Cn2cc(C=O)c(-c3cccs3)n2)cc1
126 to 129	CCC1(CC(=O)O)OCCc2c1[nH]c1c(OCC(F)(F)F)cccc21 (stereo unspecified)
132 to 136	Cc1ccc(Cn2c(=O)c3c(N4CCN(C)CC4)cc(Cl)cc3n(Cc3ccccc3)c2=O)o1
157 to 158	CCOC(=O)N1c2ccc(C(F)(F)F)cc2[C@@H](NC(=O)OC)C[C@H]1CC
152	Cc1cc(C(=NO)c2cccs2)cc(C)c1OCC(=O)O
228 to 230	COC1(OC)CCN(c2cc3c(cc2F)c(=O)c(C(=O)O)cn3-c2ccc(F)cc2F)C1
253 to 255	O=C1CCC(N2Cc3c(NCc4cccc(Cl)c4)cccc3C2=O)C(=O)N1 (stereo unspecified)
112 to 113	CN1CCN(Cc2cc(-c3ccc4c(c3)CCO4)nn(CC=Cc3ccc(Cl)cc3)c2=O)CC1
192 to 194	COc1c(C2CCN(CCCCNC(=O)c3ccc(-c4ccc(Cl)nn4)cc3)CC2)ccc2c1CCCC2
166 to 167	Cc1nc(N2CCN(Cc3ccc(OC(F)F)cc3)C2=O)sc1C(=O)NCc1cccnc1
36 to 37.5	CCOC(=O)c1c(SCC)cc(C(F)(F)F)nc1C(F)(F)F
126 to 128	COc1c(O)ccc(C(=O)c2ccccc2)c1F
166	O=C1CCCc2c1c1cccc(Cl)c1n2Cc1ccc(F)cc1
204 to 206	CC1(C)CC(=O)c2c(NCc3ccccc3)sc(-c3cc[nH]n3)c2C1
132 to 135	Cc1cccc(-c2n[nH]cc2-c2ccc(F)c(-c3cnn(CCO)c3)c2)n1
110 to 111	Cc1nc2cnc3cccnc3c2n1CC(C)C

melting point [°C]	Structure (SMILES)
104 to 105	CC(=O)Nc1ccc(CC2CCN(CCS(=O)c3ccc4[nH]c(=O)oc4c3)CC2)cc1 (stereo unspecified)
95 to 96	CCCn1nc(OCc2ccc3ccccc3n2)cc1CO
95 to 97	Cc1ccc(NC(=O)C(C)C)s1
121 to 122	O=S(=O)(Nc1ccccc1COc1cccc2cccnc12)c1ccc(F)cc1
165	COc1ccc(N2CCOCC2)c2sc(C(=O)NCC(=O)c3ccccc3)nc12
272 to 274	CCOC(=O)C1CCN(C(=O)c2[nH]c(C)c(-c3nc4ccc(C(=O)c5ccccc5)cc4[nH]3)c2C)CC1
89 to 90	CCOC(=O)C(NC(C)=O)(C(=O)OCC)c1ccc(Cl)cn1
173 to 174	CSc1nccc(Oc2ccc(NC(=O)OC(C)(C)C)c3ccccc23)n1
152 to 154	CCC(CC)Nc1cc(C)nc(Oc2c(C)cc(Cl)cc2C)c1[N+](=O)[O-]
175 to 177	O=C(CC(=O)c1ccc(C(=O)CC(=O)c2ccccc2)cc1)c1ccccc1
162 to 164	Cn1c(C(=O)c2ccc(F)cc2)cc2cc(Br)ccc21
181 to 183	O=S1c2ccc(F)cc2CCc2ccc(CO)cc21 (stereo unspecified)
> 300	CCCc1nc(N)nc(N)c1N1CCN(c2ccc(C#N)cc2)CC1
178 to 179	CC(C(N)=O)c1ccc2c(c1)Sc1ccccc1CC2=O (stereo unspecified)
227 to 230	CCCCCCN(C)c1ccc(C=C2SC(=S)N(CC(=O)NS(C)(=O)=O)C2=O)cc1
66 to 67	CCCCCCCCCCCCCCCCCCOc1ccc(NC(=O)OC(C)(C)C)cc1
258 to 260	CS(=O)(=O)Nc1ccccc1Sc1c(C(=O)O)sc2cc(OCc3cccnc3)ccc12
250 to 252	CCOC(=O)C1=C(C)NC(=NC#N)NC1c1cccc([N+](=O)[O-])c1 (stereo unspecified)
146 to 147	O=C(CCCC(Cl)=C(C(=O)O)c1csc(NC(=O)OCc2ccccc2)n1)OCc1ccccc1
75 to 77	COC(=O)C=CC=CCSc1ccc(Cl)cc1
198 to 200	COc1ccc(NS(=O)(=O)C(F)(F)F)cc1CC1C(=O)c2cc(OCc3nc4cc(F)c(F)cc4s3)ccc2OC1(C)C (stereo unspecified)
108	Cc1cccc(NC(=O)NCC(=O)N(c2ccccc2)C(C(=O)OC(C)(C)C)c2ccc(N)cc2)c1 (racemic)
158 to 161	O=C1NCCc2oc3ccccc3c21
160 to 164	COc1ccc(Nc2ncnc(NCCO)n2)cc1
144 to 145	CC(=O)NS(=O)(=O)c1ccc(-c2c(-c3cccc(F)c3)noc2C)cc1

melting point [°C]	Structure (SMILES)
> 250	NS(=O)(=O)c1ccc(NN=C2C(=O)Nc3ccc(C(=O)NCc4ccco4)cc32)cc1
180 to 182	O=C(c1ccc(OC(F)(F)F)cc1)N1CCc2cc(S(=O)(=O)N3CC(c4ccccc4)NC3=O)ccc21 (stereo unspecified)
73 to 75	COc1ccc(Br)cc1OC(=O)c1ccccc1
230 to 233	COCCn1c(C)nc2c(N)nc3ccccc3c21
172 to 174	COc1ccc2c(c1O)CCN(C=O)C2
164 to 168	O=Cc1c(O)c(O)cc([N+](=O)[O-])c1CCCC(=O)O
98 to 99	CCOC(=O)C1=Cc2cccc(NC(=O)CCCCl)c2OCC1
113 to 114	CCOC(=O)C(=NO)c1cccc(Br)c1
114 to 116	CCCC(=O)c1cnc2c(C3CO3)cccc2c1Nc1ccccc1C (stereo unspecified)
147 to 150	CC(C)(C(=O)O)C(=O)Oc1ccc(C(=O)c2ccccc2)cc1
92 to 93	COC(=O)c1nc(Br)nc(Br)c1Cl
163 to 165	COC(=O)C1Cc2c([nH]c3ccccc23)C(c2ccc(Cl)c(Cl)c2)N1C(=O)CCl (stereo unspecified)
79 to 79.5	Cc1ccc(SC(C#N)c2cccc(C(=O)c3ccccc3)c2)cc1 (stereo unspecified)
46 to 47	C#CC(O)COc1ccc(F)cc1 (stereo unspecified)
100 to 105	CC#CCOc1ccc(OCC(=O)NO)cc1
183 to 184	COc1ccccc1C1=CC(=O)CCC1CC(=O)O (stereo unspecified)
191	Cc1c(C(=O)Nc2ccc(N3CCN(CCO)CC3)c(C#N)c2)cnn1-c1ccc(F)c(Cl)c1
> 350	O=c1[nH]c2cc(Cl)ccc2c(O)c1-c1ccccc1F
209	Nc1ccc(C(=O)N2CCN(NC(=O)c3ccc(F)cc3)CC2)cc1
186 to 189	COc1cc(Nc2c(C#N)cnc3cc(-c4cnc(C=O)n4C)ccc23)c(Cl)cc1Cl
83 to 87	CCCOc1ccc(OC)cc1C(N)=O
164 to 165	CCCCc1nc2c(N)nc3ccccc3c2n1CCCCS(C)(=O)=O

Structure (SMILES)	melting point [°C]
CC(C)(C)OC(=O)c1ncn2c1[C@@H]1CCCN1C(=O)c1c-2cccc1S(C)(=O)=O	244
O=C1CN=C(c2ccccc2)c2ccccc2N1	180 to 181
COC(=O)C1CCC2(C)C(=CC(O)C3C2CCC2(C)C(O)CCC32)C1 (stereo unspecified)	150 to 152
CN(C)C1(c2cccc(F)c2)CCC(CC(=O)NCCCc2ccccc2)CC1 (stereo unspecified)	119 to 122
